From publication PMC8119466, “A screen of FDA-approved drugs identifies inhibitors of protein tyrosine phosphatase 4A3 (PTP4A3 or PRL-3)” (Scientific Reports, 2021)
Counter-ions that a name gives are not always drawn.

Assays:
Type in all cases: biochemical
Details in all cases: FDA-approved drug screen; compared to DMSO
[1] = molecular target: T1, recombinant PRL-2 (Homo sapiens, UniProt Q12974); assay: In vitro phosphatase assay (DiFMUP hydrolysis), PRL-2;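 note: PRL-2 activity read as DiFMUP hydrolysis after 20 min at room temperature with drug, enzyme first pre-reduced at 4 °C for 20 min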
T1 construct: 6xHis (N, cleaved yes); made in house; host or cells: E. coli One Shot BL21 Star
T1 sequence (Q12974 1-167): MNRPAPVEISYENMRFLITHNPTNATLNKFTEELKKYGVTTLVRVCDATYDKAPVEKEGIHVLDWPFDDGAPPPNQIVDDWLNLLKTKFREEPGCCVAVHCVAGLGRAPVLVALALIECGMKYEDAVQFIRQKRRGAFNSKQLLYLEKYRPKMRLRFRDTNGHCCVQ

[2] = molecular target: T2, recombinant PRL-1 (Homo sapiens, UniProt Q93096); assay: In vitro phosphatase assay (DiFMUP hydrolysis), PRL-1; note: test concentration or dose not given here
T2 construct: 6xHis (N, cleaved yes); made in house; host or cells: E. coli One Shot BL21 Star
T2 sequence (Q93096 1-173): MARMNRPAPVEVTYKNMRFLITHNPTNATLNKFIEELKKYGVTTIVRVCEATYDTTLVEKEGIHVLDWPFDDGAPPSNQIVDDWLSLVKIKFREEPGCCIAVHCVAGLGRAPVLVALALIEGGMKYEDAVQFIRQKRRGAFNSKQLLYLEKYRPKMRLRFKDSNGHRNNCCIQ

[3] = molecular target: T3, recombinant PRL-3 (Homo sapiens, UniProt O75365); assay: In vitro phosphatase assay (DiFMUP hydrolysis), PRL-3; note: test concentration or dose not given here
T3 construct: 6xHis (N, cleaved yes); made in house; host or cells: E. coli One Shot BL21 Star
T3 sequence (O75365 whole entry): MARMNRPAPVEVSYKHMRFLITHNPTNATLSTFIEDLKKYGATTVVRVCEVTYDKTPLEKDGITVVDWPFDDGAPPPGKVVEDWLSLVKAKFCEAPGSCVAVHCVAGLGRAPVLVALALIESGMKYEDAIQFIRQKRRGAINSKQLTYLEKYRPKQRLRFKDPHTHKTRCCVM

CC(C)NC[C@@H](O)COc1ccc(CC(N)=O)cc1 [(R)-(+)-Atenolol]
% Phosphatase Activity (compared to DMSO) PRL-2 [1]: 109%
% Phosphatase Activity (compared to DMSO) PRL-1 [2]: 113%
% Phosphatase Activity (compared to DMSO) PRL-3 [3]: 74%

NC[C@H](CC(=O)O)c1ccc(Cl)cc1 [(R)-baclofen]
% Phosphatase Activity (compared to DMSO) PRL-2 [1]: 121%
% Phosphatase Activity (compared to DMSO) PRL-1 [2]: 95%
% Phosphatase Activity (compared to DMSO) PRL-3 [3]: 117%

CC1(C)CCC(CN2CCN(c3ccc(C(=O)NS(=O)(=O)c4ccc(NCC5CCOCC5)c([N+](=O)[O-])c4)c(Oc4cnc5[nH]ccc5c4)c3)CC2)=C(c2ccc(Cl)cc2)C1 [ABT-199 (GDC-0199)]
% Phosphatase Activity (compared to DMSO) PRL-2 [1]: 30%
% Phosphatase Activity (compared to DMSO) PRL-1 [2]: 68%
% Phosphatase Activity (compared to DMSO) PRL-3 [3]: 78%

CC1(C)CCC(c2ccc(Cl)cc2)=C(CN2CCN(c3ccc(C(=O)NS(=O)(=O)c4ccc(N[C@H](CCN5CCOCC5)CSc5ccccc5)c(S(=O)(=O)C(F)(F)F)c4)cc3)CC2)C1 [ABT-263 (Navitoclax)]
% Phosphatase Activity (compared to DMSO) PRL-2 [1]: 75%
% Phosphatase Activity (compared to DMSO) PRL-1 [2]: 90%
% Phosphatase Activity (compared to DMSO) PRL-3 [3]: 81%

CC(C)c1cc(C(=O)N2Cc3ccc(CN4CCN(C)CC4)cc3C2)c(O)cc1O [AT13387]
% Phosphatase Activity (compared to DMSO) PRL-2 [1]: 100%
% Phosphatase Activity (compared to DMSO) PRL-1 [2]: 98%
% Phosphatase Activity (compared to DMSO) PRL-3 [3]: 82%

C=CC(=O)Nc1cc(Nc2nccc(-c3cn(C)c4ccccc34)n2)c(OC)cc1N(C)CCN(C)C [AZD9291]
% Phosphatase Activity (compared to DMSO) PRL-2 [1]: 89%
% Phosphatase Activity (compared to DMSO) PRL-1 [2]: 88%
% Phosphatase Activity (compared to DMSO) PRL-3 [3]: 100%

Nc1nc(NC2CC2)c2ncn([C@H]3C=C[C@@H](CO)C3)c2n1 [Abacavir sulfate]
% Phosphatase Activity (compared to DMSO) PRL-2 [1]: 85%
% Phosphatase Activity (compared to DMSO) PRL-1 [2]: 88%
% Phosphatase Activity (compared to DMSO) PRL-3 [3]: 111%

NC(=O)c1ncn([C@@H]2O[C@H](CO)[C@@H](O)[C@H]2O)c1N [Acadesine]
% Phosphatase Activity (compared to DMSO) PRL-2 [1]: 100%
% Phosphatase Activity (compared to DMSO) PRL-1 [2]: 91%
% Phosphatase Activity (compared to DMSO) PRL-3 [3]: 95%

C[C@H]1O[C@H](O[C@H]2[C@H](O)[C@@H](O)[C@@H](O[C@H]3[C@H](O)[C@@H](O)C(O)O[C@@H]3CO)O[C@@H]2CO)[C@H](O)[C@@H](O)[C@@H]1N[C@H]1C=C(CO)[C@@H](O)[C@H](O)[C@H]1O (stereo partly drawn) [Acarbose]
% Phosphatase Activity (compared to DMSO) PRL-2 [1]: 102%
% Phosphatase Activity (compared to DMSO) PRL-1 [2]: 94%
% Phosphatase Activity (compared to DMSO) PRL-3 [3]: 73%

CCCC(=O)Nc1ccc(OCC(O)CNC(C)C)c(C(C)=O)c1 (stereo not drawn) [Acebutolol HCl]
% Phosphatase Activity (compared to DMSO) PRL-2 [1]: 123%
% Phosphatase Activity (compared to DMSO) PRL-1 [2]: 105%
% Phosphatase Activity (compared to DMSO) PRL-3 [3]: 86%

CC(=O)OC1CN2CCC1CC2 (stereo not drawn) [Aceclidine HCl]
% Phosphatase Activity (compared to DMSO) PRL-2 [1]: 95%
% Phosphatase Activity (compared to DMSO) PRL-1 [2]: 97%
% Phosphatase Activity (compared to DMSO) PRL-3 [3]: 85%

CC(=O)NC(CCC(N)=O)C(=O)O (stereo not drawn) [Aceglutamide]
% Phosphatase Activity (compared to DMSO) PRL-2 [1]: 96%
% Phosphatase Activity (compared to DMSO) PRL-1 [2]: 107%
% Phosphatase Activity (compared to DMSO) PRL-3 [3]: 87%

COc1ccc2c(c1)c(CC(=O)OCC(=O)O)c(C)n2C(=O)c1ccc(Cl)cc1 [Acemetacin]
% Phosphatase Activity (compared to DMSO) PRL-2 [1]: 121%
% Phosphatase Activity (compared to DMSO) PRL-1 [2]: 93%
% Phosphatase Activity (compared to DMSO) PRL-3 [3]: 94%

CC(=O)Nc1ccccc1 [Acetanilide]
% Phosphatase Activity (compared to DMSO) PRL-2 [1]: 110%
% Phosphatase Activity (compared to DMSO) PRL-1 [2]: 110%
% Phosphatase Activity (compared to DMSO) PRL-3 [3]: 81%

CC(=O)Nc1nnc(S(N)(=O)=O)s1 [Acetazolamide]
% Phosphatase Activity (compared to DMSO) PRL-2 [1]: 97%
% Phosphatase Activity (compared to DMSO) PRL-1 [2]: 91%
% Phosphatase Activity (compared to DMSO) PRL-3 [3]: 88%

CCN(CC)CCCC(C)Nc1ccnc2cc(Cl)ccc12 (stereo not drawn) [Chloroquine Phosphate]
% Phosphatase Activity (compared to DMSO) PRL-2 [1]: 115%
% Phosphatase Activity (compared to DMSO) PRL-1 [2]: 104%

C=CCN1CC[C@]23c4c5ccc(O)c4O[C@H]2C(=O)CC[C@@]3(O)[C@H]1C5 [Naloxone HCl]
% Phosphatase Activity (compared to DMSO) PRL-2 [1]: 123%
% Phosphatase Activity (compared to DMSO) PRL-1 [2]: 105%

Colistin Sulfate
% Phosphatase Activity (compared to DMSO) PRL-1 [2]: 91%
% Phosphatase Activity (compared to DMSO) PRL-3 [3]: 120%

Gentamicin Sulfate
% Phosphatase Activity (compared to DMSO) PRL-2 [1]: 96%
% Phosphatase Activity (compared to DMSO) PRL-1 [2]: 95%

Maraviroc
% Phosphatase Activity (compared to DMSO) PRL-1 [2]: 82%
% Phosphatase Activity (compared to DMSO) PRL-3 [3]: 93%

Polymyxin B sulphate
% Phosphatase Activity (compared to DMSO) PRL-1 [2]: 98%
% Phosphatase Activity (compared to DMSO) PRL-3 [3]: 98%
